Reference: patent US12370214B2, “Combined pharmaceutical formulation comprising drug-containing liposome composition and platinum preparation” (FUJIFILM Corporation, priority 2018, dated 2025)

What was measured:
[1] = test system: A2780 cells; assay: Drug efficacy test with combined use of platinum preparation in tumor-bearing mouse model with subcutaneous transplantation of A2780 (carboplatin, Lipo, topotecan); type: in vivo, mice; settings: for Median survival time: from start of drug administration, carboplatin 80 mg/kg ip, Lipo 0.5 mg/kg tail vein once a week x 2, topotecan 0.5 mg/kg tail vein once a day x 5, carboplatin once in the topotecan combination; for Number of animal deaths or euthanasias due to deterioration of condition: of 8 animals in group, same doses and schedules as median survival
Text: A platinum preparation (hereinafter, also referred to as carboplatin), the topotecan-containing liposome composition according to the embodiment of the present invention, and topotecan were used as test substances. Physiological saline (available from Otsuka Pharmaceutical Factory, Inc., hereinafter, also referred to as carboplatin solvent) was used for the dilution of carboplatin and topotecan. A 5% Otsuka glucose solution (available from Otsuka Pharmaceutical Factory, Inc., hereinafter, also referred to as Lipo solvent) was used for the dilution of Lipo.
(§1) 5×10^6 A2780 cells, which is a human ovarian cancer cell line, were subcutaneously transplanted into the flank of female BALB/cAJcl-nu/nu mice to form subcutaneous tumors. From 7 days after transplantation, mice were drug treated with carboplatin alone, Lipo of the present invention alone, topotecan alone, a combination of carboplatin and Lipo, and a combination of carboplatin and topotecan, and the effect of the drug treatment on the survival time of the mice was evaluated. In a case where a volume of tumor reached 2,000 mm^3 or in a case where significant deterioration of the condition was observed, the animals were euthanized and considered dead.
In the combination group of a carboplatin solvent and a Lipo solvent, the carboplatin solvent was administered by intraperitoneal administration, and the Lipo solvent was administered by tail vein administration once a week for 2 weeks. The carboplatin alone group was administered by intraperitoneal administration once a week for 2 weeks. The Lipo alone group was administered by tail vein administration once a week for 2 weeks. In the combination group of carboplatin and Lipo, carboplatin was administered by intraperitoneal administration once a week for 2 weeks, and Lipo was administered by tail vein administration once a week for 2 weeks. In the combination group of carboplatin and topotecan, carboplatin was administered as a single dose by intraperitoneal administration, and topotecan was administered by tail vein administration once a day for 5 days.
Groups 1 to 4 and 6 correspond to Comparative Examples, and Group 5 corresponds to Example. In Table 5, “Lipo” represents the topotecan-containing liposome composition according to the embodiment of the present invention, “Abdomen” represents intraperitoneal administration, “Tail” represents tail vein administration, “Once a week×2” represents once a week for 2 weeks, “Once a day×5” represents administration once a day for 5 days, and “Once” represents administration once during the test period.

[2] = test system: A2780 cells; assay: Drug efficacy test with combined use of platinum preparation in tumor-bearing mouse model with subcutaneous transplantation of A2780 (carboplatin, Lipo, paclitaxel); type: in vivo, mice
Experimental: A platinum preparation (hereinafter, also referred to as carboplatin), the topotecan-containing liposome composition according to the embodiment of the present invention, and paclitaxel were used as test substances. Physiological saline (available from Otsuka Pharmaceutical Factory, Inc., hereinafter, also referred to as carboplatin solvent) was used for the dilution of carboplatin. A 10 mM histidine/9.4% sucrose solution (hereinafter, also referred to as Lipo solvent) was used for the dilution of Lipo. 12.5% CREMOPHOR (available from Sigma-Aldrich, LLC)/12.5% ethanol (available from Shonan Wako Junyaku K.K.)/75% physiological saline (available from Otsuka Pharmaceutical Factory, Inc.) was used for the dilution of paclitaxel.
as §1, with “alone,” for “alone, topotecan alone,”, “paclitaxel,” for “topotecan,”, “dead. […]” for “dead.”

| SMILES | Median survival time [1] [days] | Number of animal deaths or euthanasias due to deterioration of condition [1] | Median survival time ([2]; from start of drug administration, carboplatin 80 mg/kg ip, Lipo 0.5 mg/kg tail vein, paclitaxel 20 mg/kg tail vein, single agents once a week x 2, combinations once) [days] | Number of animal deaths or euthanasias due to deterioration of condition ([2]; of 8 animals in group, same doses and schedules as median survival) |
| --- | --- | --- | --- | --- |
| CC[C@@]1(O)C(=O)OCc2c1cc1n(c2=O)Cc2cc3c(CN(C)C)c(O)ccc3nc2-1 [Topotecan, topotecan] | 12.9 | 0 |  |  |
| N.N.O=C([O-])C1(C(=O)[O-])CCC1.[Pt+2] [Carboplatin, carboplatin] | 9.1 | 0 | 10 | 1 |
